According to patent US8747809B2, “Single diastereomers of 4-fluoroglutamine and methods of their preparation and use” (The Trustees Of The University Of Pennsylvania, priority 2009, dated 2014):

What was measured:
9 L tumor cell line = assay: In vitro cell uptake studies of the four 4-[18F]F-glutamine isomers; type: cell-based, rat; conditions: 18F-labeled isomer, 37° C., 5-120 min, compared to [3H]glutamine
Description: Cell uptake of four possible isomers was evaluated using 9 L tumor cell line. The cell uptake results (% dose/100 μg protein) were compared to that of [^3H] glutamine.
(§1) Because of this observation, we decided only to further investigate the (2S,4R) isomer of [^18F]4-FGln, 1. In vitro cell uptake inhibition studies were conducted in 9 L cells in order to test the specificity of [^18F]4-FGln (2S,4R), 1. Cold L-glutamine and L-serine served as the positive control inhibitors for the glutamine transporters. L-glutamine inhibits system N transporter and L-serine inhibits the ASC transporter. Three different concentrations were tested for each inhibitor ranging from 0.5 mM to 5 mM. After 30 minutes of co-incubation of L-glutamine and [^18F] […] Cold MeAIB served as the negative control, which inhibits system A transporter.
(§2) The cellular uptake of each of the four 4-[^18F]F-glutamine isomers (2S,4R), (2S,4S), (2R,4S) and (2R,4R) were studied in (9 L) rat brain gliosarcoma cells. L-[3,4-^3H(N)]-glutamine, >97%, 250 μCi (9.25 MBq), was purchased from Perkin Elmer and was used as a control for all of the cellular uptake experiments conducted. […] All four of the 4-[^18F]F-glutamine isomers and the L-[3,4-^3H(N)]-glutamine was dissolved in PBS solution and was added to each well (500,000 cpm/mL/well) and incubated at 37° C. for 5, 30, 60, 120 min. At the end of the incubation period, the wells were aspirated and then the residual cells were washed 3 times with 1 mL ice cold PBS without Ca^2+ and Mg^2+. After washing with cold PBS, 350 μL 1M NaOH was used to lyse the cells. The lysed cells were collected onto filter paper. The filter papers were placed in scintillation vials and counting fluid was added (7 mL ecolite+) and the vials were then counted with a beta counter 18-24 h later. For dual-isotope studies using 4-[^18F]F-glutamine isomers and L-[3,4-^3H(N)]-glutamine, the vials were counted first using a gamma counter to obtain ^18F counts. The beta counts were then obtained one day later after the ^18F was fully decayed. 100 μL of the cell lysate was used for the determination of the protein concentration by Lowry method.

9 L cells = assay: In vitro inhibition studies of 4-[18F]F-glutamine (2S,4R) uptake; type: cell-based, rat; conditions: 30 min, 37° C.
Description: as §1, §2
To test the specificity of the 4-[^18F]F-glutamine (2S,4R) isomer, inhibition studies were conducted using 9 L cells. The tracer was incubated at 37° C. for 30 min. The cells were processed as previously described as above. Cold L-glutamine and L-Serine served as the positive control inhibitors for the glutamine transporters. L-glutamine inhibits system N transporter and L-Serine inhibits the ASC transporter. Cold MeAIB served as the negative control, which inhibits system A transporter. Three different concentrations were tested for each inhibitor ranging from 0.5 mM to 5 mM.

[1] = In vivo biodistribution study in normal mice; conditions: for % Dose/Gram, Blood / % Dose/Gram, Bone / % Dose/Gram, Brain / % Dose/Gram, Heart / % Dose/Gram, Kidney / % Dose/Gram, Liver / % Dose/Gram, Lung / % Dose/Gram, Muscle / % Dose/Gram, Pancreas / % Dose/Gram, Skin / % Dose/Gram, Spleen: normal ICR mice, n = 5
Description: To test the [^18F]-4F-glutamine isomers as a novel tumor PET imaging agents, we tested the [^18F]-4F-glutamine (2S,4R) (1) in normal ICR mice weighing 20-25 grams. 5 mice per group were used for the biodistrubution study. The mice were put under anesthesia with the use of isoflurane and 0.15 mL saline solution containing 25 μCi of each isomer was injected via the lateral tail vein. The mice were sacrificed at 2, 30, 60, 120 and 240 minutes post-injection by cardiac excision while under isoflurane anesthesia. The organs of interest were removed, weighed and the radioactivity was counted with a gamma counter (Packard Cobra). The percent dose per gram was calculated by a comparison of the tissue activity counts to counts of 1.0% of the initial dose. The initial dose consists of 100 times diluted aliquots of the injected material measured at the same rate.

[2] = tested on: M/tomND spontaneous human mammary tumors; assay: Dynamic small animal PET (A-PET) imaging; type: in vivo, mice; conditions: ~300 μCi via lateral tail vein, 120 minutes imaging, myc gene up-regulated
Description: Dynamic small animal PET (A-PET) imaging studies were conducted with 4-[^18F]F-glutamine (2S,4R) isomer. All scans were performed on a dedicated animal PET scanner (Mosaic by Phillips) (Surti, 2005). Transgenic mice bearing M/tomND spontaneous human mammary tumors were used in this study. There are many advantages to using this transgenic mouse model. A doxycycline sensitive promoter genetically engineers these mice to express the myc gene. These tumors spontaneously arise vs. traditional xenograph tumors. […] When doxycycline is removed, the myc gene is down regulated. This model was chosen because these compounds will allow a direct correlation between true glutamine uptake and the level of myc gene expression.
Glutamine uptake within the M/tomND tumor was examined by injecting ˜300 μCi of the [^18F]-4F-glutamine (2S,4R) isomer via the lateral tail vein. Imaging commenced immediately after the injection of the tracer and continued for a time period of 120 minutes.

With `NC(=O)[C@H]([18F])C[C@H](N)C(=O)O` [Compound 1, (2S,4R)-2,5-Diamino-4-fluoro-5-oxopentanoic acid] the “cell uptake in 9 L cells (in words)” value (9 L tumor cell line) was “highest uptake”, the “uptake of [18F]4-FGln (2S,4R) without inhibitor (control)” value (9 L cells) was 3.56 % dose/100 ug protein and the “% Dose/Gram, Blood” value ([1]; 2 min post-injection, iv) was 6.19 ± 0.83 % Dose/Gram. For the same compound, the “% Dose/Gram, Blood” value ([1]; 30 min post-injection, iv) was 2.72 ± 0.17 % Dose/Gram, the “% Dose/Gram, Blood” value ([1]; 60 min post-injection, iv) was 2.05 ± 0.16 % Dose/Gram and the “% Dose/Gram, Blood” value ([1]; 120 min post-injection, iv) was 0.83 ± 0.12 % Dose/Gram. The “% Dose/Gram, Blood” value ([1]; 240 min post-injection, iv) was 0.48 ± 0.06 % Dose/Gram, the “% Dose/Gram, Bone” value ([1]; 2 min post-injection, iv) was 3.93 ± 0.37 % Dose/Gram and the “% Dose/Gram, Bone” value ([1]; 30 min post-injection, iv) was 5.64 ± 0.69 % Dose/Gram. For the same compound, the “% Dose/Gram, Bone” value ([1]; 60 min post-injection, iv) was 7.93 ± 1.02 % Dose/Gram, the “% Dose/Gram, Bone” value ([1]; 120 min post-injection, iv) was 14.4 ± 1.31 % Dose/Gram and the “% Dose/Gram, Bone” value ([1]; 240 min post-injection, iv) was 19.4 ± 0.50 % Dose/Gram. The “% Dose/Gram, Brain” value ([1]; 2 min post-injection, iv) was 0.54 ± 0.05 % Dose/Gram, the “% Dose/Gram, Brain” value ([1]; 30 min post-injection, iv) was 0.51 ± 0.05 % Dose/Gram and the “% Dose/Gram, Brain” value ([1]; 60 min post-injection, iv) was 0.53 ± 0.07 % Dose/Gram. For the same compound, the “% Dose/Gram, Brain” value ([1]; 120 min post-injection, iv) was 0.57 ± 0.05 % Dose/Gram, the “% Dose/Gram, Brain” value ([1]; 240 min post-injection, iv) was 0.45 ± 0.06 % Dose/Gram and the “% Dose/Gram, Heart” value ([1]; 2 min post-injection, iv) was 4.31 ± 0.32 % Dose/Gram. The “% Dose/Gram, Heart” value ([1]; 30 min post-injection, iv) was 3.16 ± 0.25 % Dose/Gram, the “% Dose/Gram, Heart” value ([1]; 60 min post-injection, iv) was 2.86 ± 0.47 % Dose/Gram and the “% Dose/Gram, Heart” value ([1]; 120 min post-injection, iv) was 1.86 ± 0.24 % Dose/Gram. The “% Dose/Gram, Heart” value ([1]; 240 min post-injection, iv) was 1.24 ± 0.19 % Dose/Gram, the “% Dose/Gram, Kidney” value ([1]; 2 min post-injection, iv) was 16.1 ± 1.03 % Dose/Gram and the “% Dose/Gram, Kidney” value ([1]; 30 min post-injection, iv) was 9.93 ± 0.52 % Dose/Gram. The “% Dose/Gram, Kidney” value ([1]; 60 min post-injection, iv) was 7.60 ± 0.84 % Dose/Gram, the “% Dose/Gram, Kidney” value ([1]; 120 min post-injection, iv) was 2.15 ± 0.34 % Dose/Gram and the “% Dose/Gram, Kidney” value ([1]; 240 min post-injection, iv) was 1.25 ± 0.21 % Dose/Gram. The “% Dose/Gram, Liver” value ([1]; 2 min post-injection, iv) was 6.92 ± 0.92 % Dose/Gram, the “% Dose/Gram, Liver” value ([1]; 30 min post-injection, iv) was 6.23 ± 0.50 % Dose/Gram and the “% Dose/Gram, Liver” value ([1]; 60 min post-injection, iv) was 5.70 ± 0.62 % Dose/Gram. The “% Dose/Gram, Liver” value ([1]; 120 min post-injection, iv) was 2.46 ± 0.26 % Dose/Gram, the “% Dose/Gram, Liver” value ([1]; 240 min post-injection, iv) was 1.30 ± 0.18 % Dose/Gram and the “% Dose/Gram, Lung” value ([1]; 2 min post-injection, iv) was 7.15 ± 0.76 % Dose/Gram. The “% Dose/Gram, Lung” value ([1]; 30 min post-injection, iv) was 5.36 ± 0.49 % Dose/Gram, the “% Dose/Gram, Lung” value ([1]; 60 min post-injection, iv) was 4.37 ± 0.28 % Dose/Gram and the “% Dose/Gram, Lung” value ([1]; 120 min post-injection, iv) was 1.69 ± 0.10 % Dose/Gram. For the same compound, the “% Dose/Gram, Lung” value ([1]; 240 min post-injection, iv) was 1.03 ± 0.15 % Dose/Gram, the “% Dose/Gram, Muscle” value ([1]; 2 min post-injection, iv) was 1.62 ± 0.10 % Dose/Gram and the “% Dose/Gram, Muscle” value ([1]; 30 min post-injection, iv) was 2.48 ± 0.16 % Dose/Gram. For the same compound, the “% Dose/Gram, Muscle” value ([1]; 60 min post-injection, iv) was 2.86 ± 0.34 % Dose/Gram, the “% Dose/Gram, Muscle” value ([1]; 120 min post-injection, iv) was 1.81 ± 0.26 % Dose/Gram and the “% Dose/Gram, Muscle” value ([1]; 240 min post-injection, iv) was 0.94 ± 0.15 % Dose/Gram. The “% Dose/Gram, Pancreas” value ([1]; 2 min post-injection, iv) was 17.2 ± 1.00 % Dose/Gram, the “% Dose/Gram, Pancreas” value ([1]; 30 min post-injection, iv) was 19.7 ± 2.16 % Dose/Gram and the “% Dose/Gram, Pancreas” value ([1]; 60 min post-injection, iv) was 17.5 ± 2.28 % Dose/Gram. The “% Dose/Gram, Pancreas” value ([1]; 120 min post-injection, iv) was 9.57 ± 1.22 % Dose/Gram, the “% Dose/Gram, Pancreas” value ([1]; 240 min post-injection, iv) was 5.92 ± 0.87 % Dose/Gram and the “% Dose/Gram, Skin” value ([1]; 2 min post-injection, iv) was 2.72 ± 0.05 % Dose/Gram. The “% Dose/Gram, Skin” value ([1]; 30 min post-injection, iv) was 4.01 ± 0.24 % Dose/Gram, the “% Dose/Gram, Skin” value ([1]; 60 min post-injection, iv) was 2.94 ± 0.68 % Dose/Gram and the “% Dose/Gram, Skin” value ([1]; 120 min post-injection, iv) was 2.17 ± 0.16 % Dose/Gram. The “% Dose/Gram, Skin” value ([1]; 240 min post-injection, iv) was 1.25 ± 0.13 % Dose/Gram, the “% Dose/Gram, Spleen” value ([1]; 2 min post-injection, iv) was 7.51 ± 0.44 % Dose/Gram and the “% Dose/Gram, Spleen” value ([1]; 30 min post-injection, iv) was 5.39 ± 0.72 % Dose/Gram. The “% Dose/Gram, Spleen” value ([1]; 60 min post-injection, iv) was 4.22 ± 0.38 % Dose/Gram, the “% Dose/Gram, Spleen” value ([1]; 120 min post-injection, iv) was 2.02 ± 0.16 % Dose/Gram and the “% Dose/Gram, Spleen” value ([1]; 240 min post-injection, iv) was 1.15 ± 0.14 % Dose/Gram. The “pancreas to liver ratio” value ([1]; after 30 min, normal mice, iv) was 4 to 1, the “in vivo de-fluorination (in words)” value ([1]; inferred from increasing bone uptake at later time points) was “likely that there was in vivo de-fluorination” and the “tumor uptake in PET images (in words)” value [2] was “taken up in the tumor sites”.
